Test results: publication PMC3698094, “Similarly Potent Inhibition of Adenylyl Cyclase by P-Site Inhibitors in Hearts from Wild Type and AC5 Knockout Mice” (PLoS ONE, 2013)

Assays:
Assay in all cases: radiochemical AC activity assay, […]cAMP from [α-32P]ATP, Sf9 membranes
Format in all cases: biochemical
AC5 (recombinant) [1] = biological target: T1, AC5 (recombinant) (Canis lupus, UniProt P30803); settings: read-out: RecombinantACs / AC5
T1 construct: gene ADCY5; recombinant membranous AC5 expressed by baculovirus in Sf9 cells; crude Sf9 membranes
T1 sequence (P30803 whole entry): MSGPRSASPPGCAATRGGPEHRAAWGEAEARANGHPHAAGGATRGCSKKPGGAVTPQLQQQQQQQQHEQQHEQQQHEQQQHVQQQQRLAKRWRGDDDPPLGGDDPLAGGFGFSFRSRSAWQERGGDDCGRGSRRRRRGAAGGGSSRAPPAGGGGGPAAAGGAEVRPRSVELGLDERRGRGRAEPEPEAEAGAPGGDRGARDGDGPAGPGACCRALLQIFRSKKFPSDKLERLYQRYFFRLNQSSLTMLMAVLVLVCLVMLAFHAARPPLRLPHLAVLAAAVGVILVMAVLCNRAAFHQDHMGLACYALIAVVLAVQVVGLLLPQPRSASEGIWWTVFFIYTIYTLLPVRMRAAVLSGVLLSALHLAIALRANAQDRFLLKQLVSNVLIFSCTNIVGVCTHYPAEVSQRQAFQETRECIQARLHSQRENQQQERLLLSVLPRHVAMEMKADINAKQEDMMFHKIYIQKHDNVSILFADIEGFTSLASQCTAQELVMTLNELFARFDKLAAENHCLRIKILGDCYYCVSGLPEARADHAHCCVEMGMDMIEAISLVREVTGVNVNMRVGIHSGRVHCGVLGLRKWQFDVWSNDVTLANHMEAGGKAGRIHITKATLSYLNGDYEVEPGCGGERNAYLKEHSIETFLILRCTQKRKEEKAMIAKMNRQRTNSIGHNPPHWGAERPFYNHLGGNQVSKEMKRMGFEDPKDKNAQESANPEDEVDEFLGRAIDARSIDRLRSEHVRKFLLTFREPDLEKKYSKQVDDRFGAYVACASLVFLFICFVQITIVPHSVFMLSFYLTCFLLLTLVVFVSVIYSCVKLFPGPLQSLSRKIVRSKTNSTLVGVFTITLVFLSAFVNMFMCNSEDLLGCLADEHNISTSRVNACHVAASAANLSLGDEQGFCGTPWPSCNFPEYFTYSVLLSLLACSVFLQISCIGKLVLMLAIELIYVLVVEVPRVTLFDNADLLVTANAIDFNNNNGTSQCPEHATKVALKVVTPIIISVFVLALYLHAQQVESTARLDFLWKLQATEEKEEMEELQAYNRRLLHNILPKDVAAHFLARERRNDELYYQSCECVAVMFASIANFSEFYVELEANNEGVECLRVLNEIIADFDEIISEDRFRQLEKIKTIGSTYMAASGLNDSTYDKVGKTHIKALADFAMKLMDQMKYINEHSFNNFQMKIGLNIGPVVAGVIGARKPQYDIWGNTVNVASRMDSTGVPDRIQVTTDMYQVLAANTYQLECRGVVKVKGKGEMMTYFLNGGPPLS

AC1 (recombinant) [2] = biological target: T2, AC1 (recombinant) (Bos taurus, UniProt P19754); settings: read-out: RecombinantACs / AC1
T2 construct: gene ADCY1; recombinant membranous AC1 expressed by baculovirus in Sf9 cells; crude Sf9 membranes
T2 sequence (P19754 whole entry): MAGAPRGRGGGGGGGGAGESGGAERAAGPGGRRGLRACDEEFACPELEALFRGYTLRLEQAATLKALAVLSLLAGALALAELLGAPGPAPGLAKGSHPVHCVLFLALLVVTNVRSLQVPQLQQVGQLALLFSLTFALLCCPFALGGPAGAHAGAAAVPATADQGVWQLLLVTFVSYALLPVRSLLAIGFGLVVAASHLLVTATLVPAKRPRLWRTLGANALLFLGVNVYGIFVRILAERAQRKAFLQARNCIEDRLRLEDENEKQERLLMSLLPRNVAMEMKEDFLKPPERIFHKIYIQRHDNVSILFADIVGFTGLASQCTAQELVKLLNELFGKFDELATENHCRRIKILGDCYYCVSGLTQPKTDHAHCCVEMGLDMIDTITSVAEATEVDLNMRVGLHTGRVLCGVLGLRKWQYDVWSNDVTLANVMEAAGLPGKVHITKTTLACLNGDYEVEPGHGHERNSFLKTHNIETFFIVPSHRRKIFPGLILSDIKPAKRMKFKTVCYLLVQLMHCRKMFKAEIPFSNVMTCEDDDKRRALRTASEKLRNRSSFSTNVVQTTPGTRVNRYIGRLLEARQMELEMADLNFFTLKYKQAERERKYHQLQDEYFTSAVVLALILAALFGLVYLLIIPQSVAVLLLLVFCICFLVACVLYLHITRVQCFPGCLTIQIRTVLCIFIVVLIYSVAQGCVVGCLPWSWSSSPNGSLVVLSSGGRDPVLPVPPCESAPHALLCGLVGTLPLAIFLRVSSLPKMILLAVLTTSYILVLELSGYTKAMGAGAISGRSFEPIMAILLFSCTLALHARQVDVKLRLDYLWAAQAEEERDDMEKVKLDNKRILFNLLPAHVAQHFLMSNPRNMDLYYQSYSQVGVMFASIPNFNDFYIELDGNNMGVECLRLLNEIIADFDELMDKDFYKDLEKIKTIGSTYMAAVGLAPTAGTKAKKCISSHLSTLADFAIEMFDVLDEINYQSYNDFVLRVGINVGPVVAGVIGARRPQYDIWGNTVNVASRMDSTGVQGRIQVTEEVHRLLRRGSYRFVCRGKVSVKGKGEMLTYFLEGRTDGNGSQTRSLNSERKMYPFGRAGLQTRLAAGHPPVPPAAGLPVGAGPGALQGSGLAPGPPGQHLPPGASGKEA

AC2 (recombinant) [3] = biological target: T3, AC2 (recombinant) (Rattus norvegicus, UniProt P26769); settings: read-out: RecombinantACs / AC2
T3 construct: gene Adcy2; recombinant membranous AC2 expressed by baculovirus in Sf9 cells; crude Sf9 membranes
T3 sequence (P26769 whole entry): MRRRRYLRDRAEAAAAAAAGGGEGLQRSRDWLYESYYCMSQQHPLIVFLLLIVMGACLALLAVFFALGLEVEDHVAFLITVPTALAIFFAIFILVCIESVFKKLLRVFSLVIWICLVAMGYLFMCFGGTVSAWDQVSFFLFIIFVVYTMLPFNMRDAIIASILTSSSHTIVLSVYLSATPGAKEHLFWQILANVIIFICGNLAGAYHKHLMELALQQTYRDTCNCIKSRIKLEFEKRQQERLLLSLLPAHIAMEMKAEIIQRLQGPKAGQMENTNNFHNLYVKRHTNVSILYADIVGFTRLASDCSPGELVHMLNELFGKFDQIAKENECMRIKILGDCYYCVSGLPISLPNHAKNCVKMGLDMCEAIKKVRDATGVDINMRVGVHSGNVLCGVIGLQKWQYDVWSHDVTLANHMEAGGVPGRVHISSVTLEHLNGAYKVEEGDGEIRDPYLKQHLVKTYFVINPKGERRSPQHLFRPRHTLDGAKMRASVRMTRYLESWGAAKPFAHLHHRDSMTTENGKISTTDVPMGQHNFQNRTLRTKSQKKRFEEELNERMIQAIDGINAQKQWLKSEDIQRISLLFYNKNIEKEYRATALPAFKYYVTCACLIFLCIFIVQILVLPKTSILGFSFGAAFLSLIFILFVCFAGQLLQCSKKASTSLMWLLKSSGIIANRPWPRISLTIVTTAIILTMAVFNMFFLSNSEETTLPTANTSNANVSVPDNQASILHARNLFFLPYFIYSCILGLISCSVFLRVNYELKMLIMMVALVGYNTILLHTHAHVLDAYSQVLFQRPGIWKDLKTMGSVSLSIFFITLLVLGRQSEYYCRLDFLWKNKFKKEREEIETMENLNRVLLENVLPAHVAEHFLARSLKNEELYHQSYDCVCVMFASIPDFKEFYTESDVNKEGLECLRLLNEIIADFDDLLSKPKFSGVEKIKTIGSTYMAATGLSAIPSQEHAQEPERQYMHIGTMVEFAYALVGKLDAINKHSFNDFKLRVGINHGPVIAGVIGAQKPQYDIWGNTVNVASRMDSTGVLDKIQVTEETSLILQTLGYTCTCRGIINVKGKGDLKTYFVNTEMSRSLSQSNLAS

AC5 (recombinant) [4] = biological target: T1, AC5 (recombinant); settings: read-out: Recombinant ACs / AC5
AC2 (recombinant) [5] = biological target: T3, AC2 (recombinant); settings: read-out: Recombinant ACs / AC2
AC1 (recombinant) [6] = biological target: T2, AC1 (recombinant); settings: read-out: Recombinant ACs / AC1

SMILES | EC50 (AC5 (recombinant) [1]) [µM] | EC50 (AC1 (recombinant) [2]) [µM] | EC50 (AC2 (recombinant) [3]) [µM] | IC50 (AC5 (recombinant) [4]) [µM] | IC50 (AC2 (recombinant) [5]) [µM] | IC50 (AC1 (recombinant) [6]) [µM]
C=C[C@@]1(C)CC(=O)[C@]2(O)[C@@]3(C)[C@@H](O)CCC(C)(C)[C@@H]3[C@H](O)[C@H](OC(C)=O)[C@@]2(C)O1 [Forskolin] | 5.8 | 2.3 | 13.4 | – | – | –
Nc1ncc2c(n1)CC(c1ccco1)CC2=O (stereo not drawn) [NKY80, 2-amino-7-(2-furanyl)-7,8-dihydro-5(6H)-quinazolinone] | – | – | – | 81.1 | 1110 | 330
Nc1ncnc2c1ncn2C1CCCO1 (stereo not drawn) [SQ22,536, 9-(tetra-hydro-2-furanyl)-9H-purin-6-amine] | – | – | – | 9.5 | 381 | 110
Nc1ncnc2c1ncn2[C@@H]1O[C@H](CO)[C@@H](O)[C@@H]1O [vidarabine, 9-β-D-arabinosyladenine] | – | – | – | 20 | 545 | 138
